Earlier results as cited in patent US20080287418A1, “Extended Release Compositions and Methods for Their Manufacture” (ASTRAZENECA AB, priority 2007, published 2008).

OCCOCCN1CCN(C2=Nc3ccccc3Sc3ccccc32)CC1 [quetiapine, 11-[4-[2-(2-hydroxyethoxy)ethyl]-1-piperazinyl]dibenzo[b,f][1,4]thiazepine]
Solubility in acid (acid): soluble in acid
Solubility in water (water): slightly soluble in water
